Values of other authors as cited in patent publication US10603382B2, “Ophthalmic composition” (Johnson & Johnson Consumer Inc., priority 2014, dated 2020).

Conditions: Merck Index, Twelfth Edition

Q: With `O=C(O)/C=C/C(=O)O` [Fumaric acid] as the compound, how does the “Solubility (g/100 ml water at 25° C.)” value read?
A: 0.63 g/100 ml

Q: Which “Solubility (g/100 ml water at 25° C.)” value does the source give for `O=C(O)CCCC(=O)O` [Glutaric acid] here?
A: 63.9 g/100 ml

Q: With `O=C(O)/C=C\C(=O)O` [Maleic acid] as the compound, how does the “Solubility (g/100 ml water at 25° C.)” value read?
A: 78 g/100 ml
